Values quoted from earlier work in patent publication US20240050408A1, “USE OF MGLUR5 ANTAGONISTS FOR TREATING AMPHETAMINE ADDICTION” (NOVARTIS AG, priority 2020, published 2024).

What was measured:
[1] = system: methamphetamine conditioned place preference; conditions: rats; Herrold et al. 2013; cited from earlier work
[2] = system: methamphetamine self-administration behavior; conditions: rat model; Gass et al. 2009; cited from earlier work

Compound	maintenance of the expression of methamphetamine conditioned place preference [1]	cue- and drug-induced reinstatement of methamphetamine-seeking behavior [2]	cue-induced reinstatement of food-seeking behavior [2]	methamphetamine self-administration behavior [2]	overall responding for food [2]
Cc1cccc(C#Cc2ccccc2)n1 [MPEP, 2-Methyl-6-(phenylethynyl)-pyridine]	inhibited				
Cc1nc(C#Cc2cccnc2)cs1 [MTEP, 3-[(2-methyl-1,3-thiazol-4-yl)ethynyl]pyridine]	inhibited	dose dependently prevented	did not alter	dose dependently reduced	without altering
